Results as given in a compilation of properties of binary mixtures (doi:10.1021/je300622r).

Assay: xn = mol fraction of the nth substance listed
Conditions: 101 kPa

CCOS(=O)(=O)[O-].CC[n+]1ccn(C)c1 + O
viscosity [mPa·s]
Conditions | 283.15 K | 293.15 K | 303.15 K | 313.15 K | 323.15 K | 333.15 K | 343.15 K
x2 = 0.0023 | 242.3 | – | 81 | 52.62 | 36.24 | 26.16 | –
x2 = 0.1225 | 171.3 | – | 62.11 | 41.51 | 29.17 | 21.46 | 16.37
x2 = 0.1966 | – | 81.3 | 52.09 | 35.42 | 25.3 | 18.81 | –
x2 = 0.427 | 62.49 | 40.03 | 27.26 | 19.53 | – | 11.24 | –
x2 = 0.6124 | – | 21.82 | 15.38 | 11.33 | 8.663 | 6.824 | 5.518
x2 = 0.798 | 14.52 | 10.01 | 7.24 | 5.453 | 4.246 | 3.402 | 2.791
x2 = 0.8983 | 6.801 | 4.853 | 3.618 | 2.793 | 2.221 | 1.813 | 1.518

CC[n+]1ccn(C)c1.COS(=O)(=O)[O-] + O
viscosity [mPa·s]
Conditions | 278.15 K | 288.15 K | 298.15 K | 308.15 K | 318.15 K | 328.15 K | 338.15 K
x2 = 0.0023 | 246.3 | – | – | 54.77 | – | – | 20.53
x2 = 0.0887 | 226 | 129.2 | – | 53.07 | 37.01 | 26.98 | 20.42
x2 = 0.2235 | 164.6 | 97.7 | 62.41 | – | 30.1 | 22.43 | 17.93
x2 = 0.4163 | 81.88 | 51.53 | 34.54 | – | 17.94 | 13.72 | –
x2 = 0.6106 | 36.75 | 24.28 | 16.97 | 12.4 | 9.404 | 7.362 | –
x2 = 0.7999 | 14.47 | 9.971 | 7.21 | 5.427 | 4.222 | 3.378 | 2.767
x2 = 0.8948 | 6.791 | – | 3.635 | – | 2.247 | 1.836 | 1.534
